Data set [1] has as its system wildtype and Keap1 mutant Kras^G12D/+;p53^−/− lung adenocarcinoma cell lines. The data set is described as follows: Cell proliferation assay (crystal violet), drug or amino acid deprived media. The class given is cell-based, mouse. Conditions: for sensitivity of Keap1 wildtype cells to NEAA depletion under oxidant treatment: wildtype cells treated with oxidative stress agents; for rescue of cell growth under serine deprived conditions by supplementation: 0.5 mM NAC, 50 μM Trolox, 3 mM formate, 16 μM thymidine, FIG. 7A. How it is done:
(§1) For cell proliferation assays conducted under different drug or media conditions as indicated, cells growing in DMEM were trypsinized, counted and plated into 12 well plate dishes (BD/Falcon) in 1 mL of RPMI media. […] For deprivation experiments, cells were washed with PBS and media was replaced with 1 mL of complete RPMI or RPMI lacking indicated amino acid and supplemented with 10% dialyzed FBS and cells were re-treated with indicated drugs. RPMI was prepared from a powder mix without amino acids (US Biological) according to manufacturer's instructions. All other amino acids besides those indicated were added to the RPMI mixture in the same concentrations present in RPMI-1640 formulation (Cellgro, Corning). Proliferation experiments were carried out for 5 days post drug treatment and collected by staining. Cells were stained with a 0.5% crystal violet (Fisher) solution in 20% methanol. Plates were then washed, dried, and crystal violet was eluted in 400 μL of 10% acetic acid.

The test system of data set [2] is wildtype vs Keap1 mutant Kras^G12D/+;p53^−/− lung adenocarcinoma cells. Conditions: previously shown (Romero 2017; Sayin 2017); cited from earlier work.
The test system of data set [3] is wildtype vs Keap1 mutant cells. The data set is described as follows: GC/MS analysis of polar metabolites and stable isotope tracing in cells. Conditions: for serine and glycine synthesis from [U^13C]-D glucose: serine depleted conditions, 250 nM CB-839 or 6 mM glutamate, FIG. 7E. The class given is cell-based, mouse.
Protocol: For analysis of cells, 1×10^5 cells were seeded in 1 mL of RPMI-1640 in 12 well plates. […] Media was then replaced with fresh RPMI lacking serine or asparagine where indicated and supplement with 10% FBS. For tracing experiments media contained 11 mM [U^13C]-D-glucose, 2 mM [U^13C]-L-glutamine, 2 mM [α^15N]-L-glutamine, or 285 μM [U^13C]-L-serine (Cambridge Isotope Laboratory). Cells were treated with 250 nM CB-839 and cultured for 1-3 hours. Cells were washed 2× in ice cold saline and then collected by scraping in 250 μL of 80% (v/v) of ice cold methanol containing 1.4 μg/mL norvaline (Sigma Aldrich). Samples were vortexed for 10 min at 4° C. and then centrifuged at max speed for 5 minutes. Supernatant was transferred to fresh tubes and then dried in a speed vac. For analysis of mouse plasma, whole blood was collected at the time of sacrifice by a retro-orbital bleed with heparin coated capillary tubes (Fisher) into EDTA containing microcentrifuge tubes. Whole blood was centrifuged for 5 minutes at 1600 g. Cleared plasma was transferred to fresh tubes and 4 μL of plasma was then aliquoted and used for analysis. 80% (v/v) methanol containing 1.4 μg/mL norvaline was added to plasma and samples were then dried in a speed vac. […] After derivatization, samples were analyzed by GC-MS using an HP-5MS column (Agilent Technologies) in an Agilent Intuvo gas chromatograph coupled to an Agilent 5997B mass spectrometer. […]
The MS system operated under electron impact ionization at 70 eV and the MS source and quadrupole were held at 230° C. and 150° C. respectively the detector was used in scanning mode, and the scanned ion range was 10-650 m/z. Mass isotopomer distributions were determined by integrating the appropriate ion fragments for each metabolite (Lewis et al., 2014, Molecular cell 55, 253-263) using MATLAB (Mathworks) and an algorithm adapted from Fernandez and colleagues (Fernandez et al., 1996, Journal of mass spectrometry: JMS 31, 255-262) that corrects for natural abundance.
Data set [4] deals with wildtype subcutaneous tumors. The data set is described as follows: Subcutaneous tumor growth, wildtype tumors. The class given is in vivo, C57B6 mice. How it is done:
(§2) 5×10^5 cells were implanted subcutaneously into C57B6 mice. Tumor volume was measured by caliper and volume was calculated (Length×Width^2×0.5). After tumor establishment phase (tumor volume ˜50 mm^3), animals were randomized and assigned to a treatment group. Animals either received an amino acid control diet, diet lacking both serine and glycine, or a diet lacking asparagine (Envigo and TestDiet), 200 mg/kg CB-839 or vehicle (Calithera) twice daily administered through oral gavage as previously described (Davidson et al., 2016, Cell Metab 23, 517-528), 60 U of L-Asparaginase (Abcam) or vehicle once daily administered through intraperitoneal injection as before (Knott et al., 2018, Nature 554, 378-381) or some treatment combination as indicated.

The subject of data set [5] is wildtype vs Keap1 mutant Kras^G12D/+;p53^−/− lung adenocarcinoma cells. As to the kind of experiment: Cell viability assay (cell titer glo). The class given is cell-based, mouse. How it is done:
For cell viability assays cells were plated in a white, opaque 96-well plate with clear bottom at a density of 1000 cells/well in RPMI or RPMI with modified amino acid content. After attachment, CB-839 (Selleck) or L-Asparaginase (AbCam) were added at the indicated concentrations. After 3 days, cell viability in the presence of all compounds was assessed by cell titer glo (Promega).

Data set [6] concerns Keap1 mutant subcutaneous tumors. As to the kind of experiment: Subcutaneous tumor growth, Keap1 mutant tumors. The class given is in vivo, C57B6 mice. How it is done:
as §2

Data set [7] relates to KPKJ wt and KPKJ V cells. The data set is described as follows: Cell ROS level, DCFCA assay (FACS). The class given is cell-based, mouse. Conditions: positive control. How it is done: TET+ stands for 3 days treatment of 1 μg/ml doxycycline for inducing shRNA expression. G6PD knockdown induces more ROS in Keap1 wildtype cells. Keap1 mutants show lower cell ROS. ROS level was measured by DCFCA assay. G6PD KO induces accumulation of ROS in Keap1 wildtype cells. Measured by FACS (DCFCA assay.) TET treatment 4 day before measuring. H2O2 positive control is about 200-fold increase.

For data set [8] the following is noted: Davies et al., 2016; cited from earlier work.
Data set [9] has as its system murine Kras^G12D/+;p53^−/− pancreatic ductal adenocarcinoma cell line. As to the kind of experiment: Proliferation / viability of pancreatic cancer cell line. The class given is cell-based, mouse. As to conditions: pre-treated with 1 μM KI696; 0.036 U/mL L-asparaginase 3 days, FIG. 5C, 5D. The procedure: RPMI was prepared from a powder mix without amino acids (US Biological) according to manufacturer's instructions. All other amino acids besides those indicated were added to the RPMI mixture in the same concentrations present in RPMI-1640 formulation (Cellgro, Corning). Proliferation experiments were carried out for 5 days post drug treatment and collected by staining. Cells were stained with a 0.5% crystal violet (Fisher) solution in 20% methanol. Plates were then washed, dried, and crystal violet was eluted in 400 μL of 10% acetic acid.

The test system of data set [10] is LKR (Kras^G12D/+;p53^+/+) cell lines. The data set is described as follows: Cell proliferation assay in media lacking serine or asparagine, LKR lines. Conditions: pre-treated with KI696 (11 μM printed elsewhere in the source), FIG. 5B. The class given is cell-based, mouse. The procedure:
as §1

Data set [11] deals with KPKJ Vector (Keap1 KO) cells transduced with sgG6pd and sgPGD. As to the kind of experiment: Colony formation assay, metabolite rescue of G6PD KO / PGD KO cells. The class given is cell-based, mouse. Conditions: FIG. 18. The text has this:
Colony formation assay of KPKJ Vector (Keap1 KO) cells transduced with sgTom, sgG6pd and sgPGD, and rescued with several metabolites.

The test system of data set [12] is KP or KPK cells. The data set is described as follows: Cell viability with exogenous heme/hemin after Alas1 knock-down/out. The class given is cell-based, mouse. The text has this: FIG. 36A depicts the cell viability of KP or KPK cells with guide RNAs against Alas1 or control in the presence of increasing amounts of Heme/Hemin.
FIG. 37A depicts a western blot validation of control or Alas1 targeting shRNAs in KP/KPK cells. FIG. 37B depicts the relative viability of KP/KPK cells in response to doxycycline inducible shRNA knockdown of Alas1.

The test system of data set [13] is KPK cells. As to the kind of experiment: Western blot of Alas1 and Hmox1 with exogenous heme/hemin. The class given is cell-based, mouse. Conditions: increasing amounts of exogenous heme/hemin, FIG. 36B.
The nature of data set [14]: GC/MS plasma amino acid levels in tumor-bearing mice. The class given is in vivo. Conditions: L-asparaginase vs asparagine deficient diet, FIG. 11A. How it is done:
For analysis of cells, 1×10^5 cells were seeded in 1 mL of RPMI-1640 in 12 well plates. […] Media was then replaced with fresh RPMI lacking serine or asparagine where indicated and supplement with 10% FBS. For tracing experiments media contained 11 mM [U^13C]-D-glucose, 2 mM [U^13C]-L-glutamine, 2 mM [α^15N]-L-glutamine, or 285 μM [U^13C]-L-serine (Cambridge Isotope Laboratory). Cells were treated with 250 nM CB-839 and cultured for 1-3 hours. Cells were washed 2× in ice cold saline and then collected by scraping in 250 μL of 80% (v/v) of ice cold methanol containing 1.4 μg/mL norvaline (Sigma Aldrich). Samples were vortexed for 10 min at 4° C. and then centrifuged at max speed for 5 minutes. Supernatant was transferred to fresh tubes and then dried in a speed vac. For analysis of mouse plasma, whole blood was collected at the time of sacrifice by a retro-orbital bleed with heparin coated capillary tubes (Fisher) into EDTA containing microcentrifuge tubes. Whole blood was centrifuged for 5 minutes at 1600 g. Cleared plasma was transferred to fresh tubes and 4 μL of plasma was then aliquoted and used for analysis. […] After derivatization, samples were analyzed by GC-MS using an HP-5MS column (Agilent Technologies) in an Agilent Intuvo gas chromatograph coupled to an Agilent 5997B mass spectrometer. […]

[15] abbreviates: 60 U once daily intraperitoneal, FIG. 9B.

The source of these data is patent US12186377B2, “Modulation of oxidative stress and amino acid metabolism for the treatment or prevention of diseases and disorders” (NEW YORK UNIVERSITY, priority 2019, dated 2025).

Entries after “also recorded” stand apart in the source; their conditions may differ. Structures can show the parent of a compound that is named as a salt.

Consider `CC(=O)OC[C@H]1O[C@@H]([S-])[C@H](OC(C)=O)[C@@H](OC(C)=O)[C@@H]1OC(C)=O.CCP(CC)CC.[Au+]` [Auranofin, 3,4,5-triacetyloxy-6-(acetyloxymethyl) oxane-2-thiolate; triethylphosphanium], for which the “sensitivity of Keap1 wildtype cells to NEAA depletion under oxidant treatment” value (shortened to “sensitivity of Keap1 wildtype cells”) in [1] is given as “sensitized to NEAA depletion”.

As to `CCCCS(=N)(=O)CCC(N)C(=O)O` [BSO, L-buthionine-sulfoximine], in data set [1], the “sensitivity of Keap1 wildtype cells” value was “sensitized to NEAA depletion”.

With `O=C(Cc1cccc(OC(F)(F)F)c1)Nc1ccc(CCCCc2nnc(NC(=O)Cc3ccccn3)s2)nn1` [CB-839], the “sensitivity of Keap1 mutant cells to CB-839” value in data set [2] was “highly sensitive”. In addition, the “serine and glycine synthesis from [U^13C]-D glucose” value in data set [3] was “decrease in both serine and glycine synthesis”. Besides, the “growth of wildtype tumors, CB-839 alone” value in data set [4] (200 mg/kg twice daily oral gavage, FIG. 9F) is recorded as “no effect on wildtype tumor growth”. Further, the “growth of wildtype tumors, CB-839 with −SG diet” value in data set [4] (diet lacking serine and glycine, FIG. 9F) is “strong synergistic effect and significantly reduced wildtype tumor growth; also recorded: strongly sensitizes Keap1 wildtype tumors to dietary restriction of serine and glycine”. Besides, the “effect of very low doses of CB-839 alone on cell growth” value in [5] (CB-839 alone) is “do not affect cell growth”. Also, the “sensitivity to very low doses of CB-839 with L-asparaginase” value in data set [5] (Keap1 mutant cells, 0.1 U/mL L-asparaginase, FIG. 6I) was “increased sensitivity”. The “sensitivity to very low doses of CB-839 in reduced serine” value in [5] (Keap1 mutant cells, serine at 10% of normal concentration, FIG. 6J) is given as “increased sensitivity”. In addition, the “growth of Keap1 mutant tumors, CB-839 alone” value in [6] (200 mg/kg twice daily oral gavage, FIG. 9E) is “sensitive”. The “growth of Keap1 mutant tumors, CB-839 with −SG diet” value in [6] (compared to either monotherapy, FIG. 9E) was “further reduced Keap1 mutant tumor growth”.

Turning to `COC(=O)/C=C/C(=O)OC` [DMF, di-methyl fumarate], in data set [1], the “sensitivity of Keap1 wildtype cells” value was “sensitized to NEAA depletion”.

With `OO` [H2O2], in data set [7], the “cell ROS level increase” value is given as “about 200 fold”.

`COc1cc([C@@H](CC(=O)O)c2ccc(C)c(CN3C[C@@H](C)Oc4ccccc4S3(=O)=O)c2)cc2nnn(C)c12` [KI696]: in data set [8], the pharmacokinetics result was “prevent its efficient use in vivo”. In [9], the “growth upon serine deprivation or L-asparaginase treatment after Nrf2 activation” value is on record as “robust growth suppression”. For the same molecule, in data set [10], the “proliferation in media lacking serine or asparagine, p53 wildtype LKR lines” value is “growth suppression”.

On to `CC(=O)N[C@@H](CS)C(=O)O` [NAC, N-acetyl-L-cysteine], for which the “rescue of cell growth under serine deprived conditions by supplementation” value (“rescue of cell growth” for short) in [1] (Keap1 mutant cells) is reported as “did not rescue cell growth”. For the same molecule, the “G6PD KO rescue (colony formation)” value in [11] is “No rescue”.

Regarding `Cc1c(C)c2c(c(C)c1O)CCC(C)(C(=O)O)O2` (stereo not drawn) [Trolox], the “rescue of cell growth” value in data set [1] (Keap1 mutant cells) is reported as “did not rescue cell growth”. For the same molecule, the “G6PD KO rescue (colony formation)” value in [11] was “No rescue”.

In the case of `O=C(O)CCC(=O)C(=O)O` [a-KG], in [11], the “G6PD KO rescue (colony formation)” value is “can rescue G6PD KO cells; also recorded: Completely rescue”.

`C[C@H](N)C(=O)O` [alanine]: the “proliferation on alanine supplementation” value in [1] (Keap1 mutant cells, RPMI 10% dialyzed FBS, FIG. 2D) was “increase in cancer cell proliferation”.

Consider `O=CO` [formate], for which the “rescue of cell growth” value in [1] (Keap1 mutant cells) is given as “complete rescue of cell growth”.

On to `N[C@@H](CCC(=O)O)C(=O)O` [glutamate], for which the intracellular glutamate levels result in data set [3] (Keap1 mutant cells, 500 nM Erastin or 6 mM glutamate, FIG. 6B, 6C) is recorded as “significantly increased intracellular glutamate levels”. Further, the “serine and glycine synthesis from [U^13C]-D glucose” value in [3] was “increase in both serine and glycine synthesis”. Also, the “G6PD KO rescue (colony formation)” value in data set [11] is recorded as “can rescue G6PD KO cells; also recorded: Completely rescue”.

Turning to `C=CC1=C(C)c2cc3[n-]c(cc4[n-]c(cc5nc(cc1n2)C(C)=C5C=C)c(C)c4CCC(=O)O)c(CCC(=O)O)c3C.[Fe+2]` [heme/hemin], in data set [12] (KP/KPK cells, doxycycline inducible shRNA, FIG. 37B), the “rescue of growth defects after shRNA knockdown of Alas1” value is “completely rescues any growth defects”. Besides, the “exogenous heme needed to rescue growth” value in data set [12] (Keap1-mutant (KPK) vs KP cells with guide RNAs against Alas1, FIG. 36A) is on record as “require higher levels of exogenous heme to rescue growth”. Further, in data set [13], the Alas1 protein level result is “decrease Alas1” and the Hmox1 protein level result was “increase Hmox1”.

On to `Cc1cn([C@H]2C[C@H](O)[C@@H](CO)O2)c(=O)[nH]c1=O` [thymidine], for which the “rescue of cell growth” value in [1] (Keap1 mutant cells) was “complete rescue of cell growth”.

As to L-asparaginase, the “growth of wildtype tumors, L-asparaginase” value in data set [4] (setting [15]) is listed as “not wildtype tumors”. Further, the “relative viability on L-asparaginase treatment” value in data set [5] (Keap1 mutant vs wildtype cells, RPMI, 3 days, FIG. 1D) is listed as “increased sensitivity”. The “growth of Keap1 mutant tumors, L-asparaginase” value in [6] (setting [15]) is listed as “blunted growth”. Besides, the “growth of Keap1 mutant tumors, L-asparaginase alone or with asparagine free diet” value in data set [6] (FIG. 9D) is “strongly blunts the growth”. Also, the “plasma levels of asparagine” value in data set [14] is given as “more effective at reducing plasma levels of asparagine than the asparagine diet”.
